Measured values taken from patent publication US20080103205A1, “Pesticidal compositions and methods of use” (priority 2006, published 2008).
Like-named read-outs stand apart in the source and are kept apart here.

Legend:
[1] = tested on: Meloidogyne incognita eggs; experiment: M. incognita egg hatching; assay type: in vivo
Procedure: Meloidogyne incognita (plant parasitic nematode) eggs were collected from tomato plant roots and were suspended in water. The solution was either diluted or concentrated to adjust the egg load to about 5000/ml. AT stock solutions prepared in DMSO and 300 ul of test solution was placed in a well, along with 20 ul of aqueous solution containing eggs. The number of eggs in 20 ul solution ranged from 115 to 143 (n=10). Each treatment (2, 5, 10, 20, or 40 ppm) was replicated 5 times. Microplates were sealed with Parafilm™ and incubated at room temperature. Similar tests conducted with 0.2% DMSO alone served as controls. Egg hatching was monitored at 24, 72, 120, and 168 hr after incubation. Both moving and non-moving nematodes were counted to arrive at the number of eggs hatched. Proportion of egg hatch was calculated as the number of juveniles divided by total number of eggs.
VSCC blockers effect on M. incognita egg hatching is shown in the following tables where % hatched is rounded to the nearest percentage point and where “% C*” is % hatch, normalized to control.

Caenorhabditis elegans = experiment: Toxicity test, adult Caenorhabditis elegans, 96 well micro plate; assay type: in vivo; conditions: for mortality at 50 ppm / mortality at 100 ppm / mortality at 200 ppm / mortality at 300 ppm / mortality at 400 ppm: Caenorhabditis elegans
Procedure: Methodology: Toxicity tests were conducted using J2 juveniles of Meloidogyne incognita adult Caenorhabditis elegans collected from nematode-infested tomato plant roots and culture Petri plates, respectively. Test concentrations of 50, 100, 200, 300, or 400 ppm were prepared in 0.2% dimethylsulfoxide (DMSO) in tap water. Aliquots (300 microliters (ul)) were applied to a 96 well micro plate and a 20 ul aqueous solution containing nematodes was added. The number of nematodes in 20 ul ranged from 17 to 30. Micro plates were sealed with Parafilm™ and incubated at room temperature. Similar tests conducted with 0.2% DMSO in tap water served as controls. Nematode mortality was checked at 24, 48, 72, 120, and 168 hr after incubation. Nematodes that were motionless for 30 sec when observed under a stereomicroscope were considered paralyzed and included in mortality counts. Each concentration was replicated five times and mean percent mortality was calculated after correcting for control mortality using Abbott's formula.
Data Analysis: Mortality data were analyzed using PROC PROBIT (SAS) program and LC50 values were estimated.

[2] = 24 hr, read-out: Corrected Mortality (%)
[3] = 48 hr, read-out: Corrected Mortality (%)
[4] = 72 hr, read-out: Corrected Mortality (%)
[5] = 120 hr, read-out: Corrected Mortality (%)
[6] = 120 hr, read-out: Mortality (%)
[7] = 168 hr, read-out: Corrected Mortality (%)
[8] = 168 hr, read-out: Mortality (%)

O=S(=O)(O)c1cc(N=C=S)ccc1/C=C/c1ccc(N=C=S)cc1S(=O)(=O)O [DIDS, trans-4,4′-diisothiocyanatostilbene-2,2′-disulfonic acid, reference compound] was tested, and the “Eggs Hatched %” value ([1]; 2 ppm, 24 hr) was 10%, the “Eggs Hatched % C* (% hatch, normalized to control)” value ([1]; 2 ppm, 24 hr) was 100% and the “Eggs Hatched No.” value ([1]; 2 ppm, 24 hr) was 66. The “Eggs Hatched %” value ([1]; 2 ppm, 72 hr) was 14%, the “Eggs Hatched % C* (% hatch, normalized to control)” value ([1]; 2 ppm, 72 hr) was 87% and the “Eggs Hatched No.” value ([1]; 2 ppm, 72 hr) was 95. For the same compound, the “Eggs Hatched %” value ([1]; 2 ppm, 120 hr) was 19%, the “Eggs Hatched % C* (% hatch, normalized to control)” value ([1]; 2 ppm, 120 hr) was 86% and the “Eggs Hatched No.” value ([1]; 2 ppm, 120 hr) was 128. For the same compound, the “Eggs Hatched %” value ([1]; 2 ppm, 168 hr) was 22%, the “Eggs Hatched % C* (% hatch, normalized to control)” value ([1]; 2 ppm, 168 hr) was 79% and the “Eggs Hatched No.” value ([1]; 2 ppm, 168 hr) was 162. The “Eggs Hatched %” value ([1]; 5 ppm, 24 hr) was 9%, the “Eggs Hatched % C* (% hatch, normalized to control)” value ([1]; 5 ppm, 24 hr) was 90% and the “Eggs Hatched No.” value ([1]; 5 ppm, 24 hr) was 62. For the same compound, the “Eggs Hatched %” value ([1]; 5 ppm, 72 hr) was 13%, the “Eggs Hatched % C* (% hatch, normalized to control)” value ([1]; 5 ppm, 72 hr) was 81% and the “Eggs Hatched No.” value ([1]; 5 ppm, 72 hr) was 91. The “Eggs Hatched %” value ([1]; 5 ppm, 120 hr) was 17%, the “Eggs Hatched % C* (% hatch, normalized to control)” value ([1]; 5 ppm, 120 hr) was 77% and the “Eggs Hatched No.” value ([1]; 5 ppm, 120 hr) was 129. For the same compound, the “Eggs Hatched %” value ([1]; 5 ppm, 168 hr) was 21%, the “Eggs Hatched % C* (% hatch, normalized to control)” value ([1]; 5 ppm, 168 hr) was 75% and the “Eggs Hatched No.” value ([1]; 5 ppm, 168 hr) was 159. The “Eggs Hatched %” value ([1]; 10 ppm, 24 hr) was 9%, the “Eggs Hatched % C* (% hatch, normalized to control)” value ([1]; 10 ppm, 24 hr) was 90% and the “Eggs Hatched No.” value ([1]; 10 ppm, 24 hr) was 60. The “Eggs Hatched %” value ([1]; 10 ppm, 72 hr) was 13%, the “Eggs Hatched % C* (% hatch, normalized to control)” value ([1]; 10 ppm, 72 hr) was 81% and the “Eggs Hatched No.” value ([1]; 10 ppm, 72 hr) was 83. The “Eggs Hatched %” value ([1]; 10 ppm, 120 hr) was 15%, the “Eggs Hatched % C* (% hatch, normalized to control)” value ([1]; 10 ppm, 120 hr) was 68% and the “Eggs Hatched No.” value ([1]; 10 ppm, 120 hr) was 103. The “Eggs Hatched %” value ([1]; 10 ppm, 168 hr) was 18%, the “Eggs Hatched % C* (% hatch, normalized to control)” value ([1]; 10 ppm, 168 hr) was 64% and the “Eggs Hatched No.” value ([1]; 10 ppm, 168 hr) was 136. For the same compound, the “Eggs Hatched %” value ([1]; 20 ppm, 24 hr) was 8%, the “Eggs Hatched % C* (% hatch, normalized to control)” value ([1]; 20 ppm, 24 hr) was 80% and the “Eggs Hatched No.” value ([1]; 20 ppm, 24 hr) was 51. The “Eggs Hatched %” value ([1]; 20 ppm, 72 hr) was 11%, the “Eggs Hatched % C* (% hatch, normalized to control)” value ([1]; 20 ppm, 72 hr) was 69% and the “Eggs Hatched No.” value ([1]; 20 ppm, 72 hr) was 64. The “Eggs Hatched %” value ([1]; 20 ppm, 120 hr) was 12%, the “Eggs Hatched % C* (% hatch, normalized to control)” value ([1]; 20 ppm, 120 hr) was 55% and the “Eggs Hatched No.” value ([1]; 20 ppm, 120 hr) was 79. For the same compound, the “Eggs Hatched %” value ([1]; 20 ppm, 168 hr) was 15%, the “Eggs Hatched % C* (% hatch, normalized to control)” value ([1]; 20 ppm, 168 hr) was 54% and the “Eggs Hatched No.” value ([1]; 20 ppm, 168 hr) was 99. For the same compound, the “Eggs Hatched %” value ([1]; 40 ppm, 24 hr) was 7%, the “Eggs Hatched % C* (% hatch, normalized to control)” value ([1]; 40 ppm, 24 hr) was 70% and the “Eggs Hatched No.” value ([1]; 40 ppm, 24 hr) was 48. For the same compound, the “Eggs Hatched %” value ([1]; 40 ppm, 72 hr) was 10%, the “Eggs Hatched % C* (% hatch, normalized to control)” value ([1]; 40 ppm, 72 hr) was 62% and the “Eggs Hatched No.” value ([1]; 40 ppm, 72 hr) was 55. For the same compound, the “Eggs Hatched %” value ([1]; 40 ppm, 120 hr) was 10%, the “Eggs Hatched % C* (% hatch, normalized to control)” value ([1]; 40 ppm, 120 hr) was 45% and the “Eggs Hatched No.” value ([1]; 40 ppm, 120 hr) was 63. The “Eggs Hatched %” value ([1]; 40 ppm, 168 hr) was 11%, the “Eggs Hatched % C* (% hatch, normalized to control)” value ([1]; 40 ppm, 168 hr) was 39% and the “Eggs Hatched No.” value ([1]; 40 ppm, 168 hr) was 75. For the same compound, the mortality at 50 ppm (Caenorhabditis elegans; [2]) was 14%, the mortality at 50 ppm (Caenorhabditis elegans; 24 hr, read-out: Mortality (%)) was 16% and the mortality at 50 ppm (Caenorhabditis elegans; [3]) was 34%. The mortality at 50 ppm (Caenorhabditis elegans; 48 hr, read-out: Mortality (%)) was 36%, the mortality at 50 ppm (Caenorhabditis elegans; [4]) was 56% and the mortality at 50 ppm (Caenorhabditis elegans; 72 hr, read-out: Mortality (%)) was 58%. It also gave a mortality at 50 ppm (Caenorhabditis elegans; [5]) of 74%, a mortality at 50 ppm (Caenorhabditis elegans; [6]) of 76% and a mortality at 50 ppm (Caenorhabditis elegans; [7]) of 98%. It also gave a mortality at 50 ppm (Caenorhabditis elegans; [8]) of 98%, a mortality at 100 ppm (Caenorhabditis elegans; [2]) of 18% and a mortality at 100 ppm (Caenorhabditis elegans; 24 hr, read-out: Mortality (%)) of 20%. It also gave a mortality at 100 ppm (Caenorhabditis elegans; [3]) of 43%, a mortality at 100 ppm (Caenorhabditis elegans; 48 hr, read-out: Mortality (%)) of 45% and a mortality at 100 ppm (Caenorhabditis elegans; [4]) of 68%. It also gave a mortality at 100 ppm (Caenorhabditis elegans; 72 hr, read-out: Mortality (%)) of 69%, a mortality at 100 ppm (Caenorhabditis elegans; [5]) of 88% and a mortality at 100 ppm (Caenorhabditis elegans; [6]) of 89%. It also gave a mortality at 100 ppm (Caenorhabditis elegans; [7]) of 100%, a mortality at 100 ppm (Caenorhabditis elegans; [8]) of 100% and a mortality at 200 ppm (Caenorhabditis elegans; [2]) of 22%. The mortality at 200 ppm (Caenorhabditis elegans; 24 hr, read-out: Mortality (%)) was 24%, the mortality at 200 ppm (Caenorhabditis elegans; [3]) was 44% and the mortality at 200 ppm (Caenorhabditis elegans; 48 hr, read-out: Mortality (%)) was 46%. It also gave a mortality at 200 ppm (Caenorhabditis elegans; [4]) of 77%, a mortality at 200 ppm (Caenorhabditis elegans; 72 hr, read-out: Mortality (%)) of 77% and a mortality at 200 ppm (Caenorhabditis elegans; [5]) of 97%. For the same compound, the mortality at 200 ppm (Caenorhabditis elegans; [6]) was 97%, the mortality at 200 ppm (Caenorhabditis elegans; [7]) was 100% and the mortality at 200 ppm (Caenorhabditis elegans; [8]) was 100%. The mortality at 300 ppm (Caenorhabditis elegans; [2]) was 20%, the mortality at 300 ppm (Caenorhabditis elegans; 24 hr, read-out: Mortality (%)) was 22% and the mortality at 300 ppm (Caenorhabditis elegans; [3]) was 52%. The mortality at 300 ppm (Caenorhabditis elegans; 48 hr, read-out: Mortality (%)) was 53%, the mortality at 300 ppm (Caenorhabditis elegans; [4]) was 81% and the mortality at 300 ppm (Caenorhabditis elegans; 72 hr, read-out: Mortality (%)) was 83%. It also gave a mortality at 300 ppm (Caenorhabditis elegans; [5]) of 100%, a mortality at 300 ppm (Caenorhabditis elegans; [6]) of 99% and a mortality at 300 ppm (Caenorhabditis elegans; [7]) of 100%. The mortality at 300 ppm (Caenorhabditis elegans; [8]) was 100%, the mortality at 400 ppm (Caenorhabditis elegans; [2]) was 23% and the mortality at 400 ppm (Caenorhabditis elegans; 24 hr, read-out: Mortality (%)) was 25%. For the same compound, the mortality at 400 ppm (Caenorhabditis elegans; [3]) was 58%, the mortality at 400 ppm (Caenorhabditis elegans; 48 hr, read-out: Mortality (%)) was 59% and the mortality at 400 ppm (Caenorhabditis elegans; [4]) was 90%. The mortality at 400 ppm (Caenorhabditis elegans; 72 hr, read-out: Mortality (%)) was 90%, the mortality at 400 ppm (Caenorhabditis elegans; [5]) was 100% and the mortality at 400 ppm (Caenorhabditis elegans; [6]) was 100%. The mortality at 400 ppm (Caenorhabditis elegans; [7]) was 100%, the mortality at 400 ppm (Caenorhabditis elegans; [8]) was 100% and the “LC50 (ppm)” value (Caenorhabditis elegans; Day 2) was 237 ppm. The “LC50 (ppm)” value (Caenorhabditis elegans; Day 3) was 38 ppm, the “LC50 (ppm)” value (Caenorhabditis elegans; Day 5) was 27 ppm and the “LC50 (ppm)” value (Caenorhabditis elegans; Day 7) was 3 ppm.
